Experimental data: patent US5677324A, “Benzopyranes as potassium channel openers” (Pfizer Inc., priority 1993, dated 1997)
pIC50: −log10 of the molar value.

The molecules below were run on guinea pig tracheal ring preparations (assay: in vitro relaxation of guinea pig tracheal ring preparations (smooth muscle relaxant activity)). Details: Cavia porcellus; relaxation of KCl (20 mM)-contracted tracheal strips, Krebs solution, 37° C.; reversal to pretreatment base line = 100 percent relaxation.
Format: cell-based
Source text: The compounds of the formula (I) have smooth muscle relaxant activity since they are able to open potassium channels in such tissue. They can be tested for smooth muscle relaxant activity by a method involving measuring the in vitro relaxation of guinea pig tracheal ring preparations as follows:
Male guinea pigs (500-600 g) were killed by a blow to the head and exsanguinated. The trachea was removed, placed in Krebs solution and cleaned. The trachea was slit through the cartilage along it's longitudinal axis and strips consisting of four adjacent cartilage rings were prepared. The strips were each placed in a water-jacketed organ bath (37° C.) containing Krebs solution and tied to a force-displacementtransducer for the measurement of isometric tension responses. The tissues were equilibrated for 60 minutes under a resting load of 1 g and washed every 15 minutes before the start of each experiment.
The composition of the Krebs solution was as follows (millimoles):- NaCl (119); KCl (4.7); NaHCO3 (25); KH2 PO4 (1.2); MgSO4 (1.2); CaCl2 (2.5); glucose (11), and indomethacin (2.8 μM) was added to remove the influence of the endogenous prostanoids. The solution was gassed with 95% O2 /5% CO2 and the temperature was kept constant at 37° C.
After the equilibration period a priming dose of KCl (20 mM) was added to each tissue bath and after a further 20 minutes the tissue was washed. After a further 30 minutes KCl (20 mM) was added to contract each tissue. The relaxant action of a compound of the formula (I) was examined when the maintained contractile response had stabilized. The compounds can be added cumulatively (10^-8 -10^-5 […]) at 5 minute intervals.
The reversal to pretreatment base line was taken as 100 percent relaxation in these studies and concentration-relaxation curves were constructed in order to obtain IC50 values for potency.
A selection of the compounds of the preceding Examples was tested for smooth muscle relaxant activity by the method involving measuring the in vitro relaxation of guinea pig tracheal ring preparations as described on pages 31 and 32 of the description.

pIC50 | Structure (SMILES)
7.40 | CC1(C)Oc2ccc(-c3nnnn3CCc3ccccc3)cc2[C@@H](N2CCCCC2=O)[C@@H]1O (relative stereo) [Example 35]
7.17 | Cn1nnnc1-c1ccc2c(c1)[C@@H](N1CCCCC1=O)[C@H](O)C(C)(C)O2 (relative stereo) [Example 36]
6.82 | Cn1nnnc1-c1ccc2c(c1)[C@@H](Oc1ccc(=O)[nH]n1)[C@](C)(O)C(C)(C)O2 [Example 3]
6.36 | CC1(C)Oc2ccc(-c3nnnn3CCc3ccccc3)cc2C(Oc2ccc(=O)[nH]n2)C1(C)O (centres unmarked) [Example 7]
6.92 | CCOC(=O)CCCCn1nnnc1-c1ccc2c(c1)[C@@H](Oc1ccc(O)nn1)[C@](C)(O)C(C)(C)O2 [Example 11, (3S,4R)-3,4-dihydro-6-(1-[4-ethoxycarbonylbut-1-yl]-1H-tetrazol-5-yl)-3-hydroxy-4-(3-hydroxypyridazin-6-yl)oxy-2,2,3-trimethyl-2H-benzo[b]pyran]
